The values below come from ChEMBL document CHEMBL4152250, “Antibacterial and anti-TB tat-peptidomimetics with improved efficacy and half-life” (Eur J Med Chem, 2018).

Broadly, the pIC50 is the negative decadic logarithm of the IC50, by convention in mol/L. A word on the MIC: it is the lowest concentration that inhibits growth of the organism. A high value points to a less susceptible organism.

Structures are written as SMILES. pIC50: −log10 of the molar value. In brackets after ≈: the same amount, converted by molar mass. Numbered stars: 1 amine (or outer) side, 2 acyl side, 3 side chain; on linkers, the order of the positions; unused ones are H or OH. Square brackets hold non-standard residues; d marks the D form. Peptide text beside a SMILES is read from it. Pro(N-(CH2)3Gua,cis-4-NH-) = N=C(N)NCCCN1C[C@@H](N[*:1])C[C@H]1C(=O)[*:2]; Pro(cis-4-guanidino) = NC(N)=N[C@@H]1CN[C@H](C(=O)O)C1; X1 = NCCCN1C[C@@H](N[*:1])C[C@H]1C(=O)[*:2]; Ethylenediamine = C(CN[*:2])N[*:1]; βAla = NCCC(=O)O A value given as a limit tells only on which side of the number the result lay.

Test [1] has as its system Mycobacterium tuberculosis. Put plainly: Antitubercular activity against multidrug-resistant active stage of Mycobacterium tuberculosis H37Ra after 8 days by XRMA. Type of test: functional, organism-based. Particulars: 192 h.
Test [2] relates to Mycobacterium tuberculosis. Put plainly: Antitubercular activity against multidrug-resistant dormant stage of Mycobacterium tuberculosis H37Ra after 12 days by XRMA. Type of test: functional, organism-based. Particulars: 288 h.

Consider `CC(=O)N[C@@H](Cc1ccccc1)C(=O)NCC(=O)N[C@@H](CCCNC(=N)N)C(=O)N[C@@H](CCCCN)C(=O)N[C@@H](CCCCN)C(=O)N[C@@H](CCCNC(=N)N)C(=O)N[C@@H](CCCNC(=N)N)C(=O)N[C@@H](CCC(N)=O)C(=O)N[C@@H](CCCNC(=N)N)C(=O)N[C@@H](CCCNC(=N)N)C(=O)N[C@@H](CCCNC(=N)N)C(N)=O`, for which the results for the pIC50 in test [1] and in test [2] were below 4.22 and 4.72, respectively.

As to `CC(=O)N[C@@H](Cc1ccccc1)C(=O)NCC(=O)N[C@H]1C[C@@H](C(=O)N[C@@H](CCCCN)C(=O)N[C@@H](CCCCN)C(=O)N[C@@H](CCCNC(=N)N)C(=O)N[C@H]2C[C@@H](C(=O)N[C@@H](CCC(N)=O)C(=O)N[C@H]3C[C@@H](C(=O)N[C@@H](CCCNC(=N)N)C(=O)N[C@H]4C[C@@H](C(=O)NCCC(N)=O)N(CCCNC(=N)N)C4)N(CCCNC(=N)N)C3)N(CCCNC(=N)N)C2)N(CCCNC(=N)N)C1`, in test [1], the pIC50 is 5.51 and the MIC worked out at 24.6 µM (≈ 46.2 µg/mL). Moreover, in test [2], the negative-log IC50 (pIC50) is 5.63 and the MIC came out at 11.7 µM (≈ 22 µg/mL).

With `CC(=O)N[C@@H](Cc1ccccc1)C(=O)NCC(=O)N[C@@H](CCCNC(=N)N)C(=O)N[C@@H](CCCCN)C(=O)N[C@@H](CCCCN)C(=O)N[C@@H](CCCNC(=N)N)C(=O)N[C@@H](CCCNC(=N)N)C(=O)N[C@@H](CCC(N)=O)C(=O)N[C@@H](CCCNC(=N)N)C(=O)N[C@@H](CCCNC(=N)N)C(=O)N[C@H]1C[C@@H](C(=O)NCCC(N)=O)N(CCCNC(=N)N)C1` (Ac-FGRKKRRQRR[Pro(N-(CH2)3Gua,cis-4-NH-)][βAla]-NH2), the figures for the pIC50 in test [1] and in test [2] were 5.73 and 5.89, respectively. In addition, the MIC in test [1] turned out to be 22.1 µM (≈ 37.8 µg/mL); in test [2] it was 12 µM (≈ 20.5 µg/mL).

In test [1], `CC(=O)N[C@@H](Cc1ccccc1)C(=O)NCC(=O)N[C@@H](CCCNC(=N)N)C(=O)N[C@@H](CCCCN)C(=O)N[C@@H](CCCCN)C(=O)N[C@@H](CCCNC(=N)N)C(=O)N[C@@H](CCCNC(=N)N)C(=O)N[C@@H](CCC(N)=O)C(=O)N[C@@H](CCCNC(=N)N)C(=O)N[C@@H](CCCNC(=N)N)C(=O)N1C[C@@H](NC(=N)N)C[C@H]1C(=O)NCCC(N)=O` (Ac-FGRKKRRQRR[Pro(cis-4-guanidino)][βAla]-NH2) showed a negative-log IC50 (pIC50) of 5.51 and an MIC of 22.5 µM (≈ 37.2 µg/mL). In test [2], this compound showed a pIC50 of 5.51 and a minimal inhibitory concentration (MIC) of 12.9 µM (≈ 21.3 µg/mL).

In test [1], `CC(=O)N[C@@H](Cc1ccccc1)C(=O)NCC(=O)N[C@@H](CCCNC(=N)N)C(=O)N[C@@H](CCCCN)C(=O)N[C@@H](CCCCN)C(=O)N[C@H]1C[C@@H](C(=O)N[C@@H](CCCNC(=N)N)C(=O)N[C@@H](CCC(N)=O)C(=O)N[C@@H](CCCNC(=N)N)C(=O)N[C@@H](CCCNC(=N)N)C(=O)N[C@@H](CCCNC(=N)N)C(=O)NCCC(N)=O)N(CCCNC(=N)N)C1` (Ac-FGRKK[Pro(N-(CH2)3Gua,cis-4-NH-)]RQRRR[βAla]-NH2) showed a pIC50 of 5.70 and an MIC of 13 µM (≈ 22.2 µg/mL). Besides, in test [2], the negative logarithm of the IC50 (pIC50) was 5.96 and the MIC came to 10.6 µM (≈ 18.1 µg/mL).

`CC(=O)N[C@@H](Cc1ccccc1)C(=O)NCC(=O)N[C@@H](CCCNC(=N)N)C(=O)N[C@@H](CCCCN)C(=O)N[C@@H](CCCCN)C(=O)N1C[C@@H](NC(=N)N)C[C@H]1C(=O)N[C@@H](CCCNC(=N)N)C(=O)N[C@@H](CCC(N)=O)C(=O)N[C@@H](CCCNC(=N)N)C(=O)N[C@@H](CCCNC(=N)N)C(=O)N[C@@H](CCCNC(=N)N)C(=O)NCCC(N)=O` (Ac-FGRKK[Pro(cis-4-guanidino)]RQRRR[βAla]-NH2): the pIC50 in test [1] is 5.57; in test [2], 5.49. In addition, the values for the MIC in test [1] and in test [2] were 15.1 µM (≈ 25 µg/mL) and 14.5 µM (≈ 24 µg/mL), respectively.

Consider `CC(=O)N[C@@H](Cc1ccccc1)C(=O)NCC(=O)N[C@H]1C[C@@H](C(=O)N[C@@H](CCCCN)C(=O)N[C@@H](CCCCN)C(=O)N[C@@H](CCCNC(=N)N)C(=O)N[C@H]2C[C@@H](C(=O)N[C@@H](CCC(N)=O)C(=O)N[C@@H](CCCNC(=N)N)C(=O)N[C@@H](CCCNC(=N)N)C(=O)N[C@H]3C[C@@H](C(=O)NCCC(N)=O)N(CCCNC(=N)N)C3)N(CCCNC(=N)N)C2)N(CCCNC(=N)N)C1` (Ac-FG[Pro(N-(CH2)3Gua,cis-4-NH-)]KKR[Pro(N-(CH2)3Gua,cis-4-NH-)]QRR[Pro(N-(CH2)3Gua,cis-4-NH-)][βAla]-NH2), for which the negative logarithm of the IC50 (pIC50) in test [1] is 5.19; in test [2] it was 6.17. Further, the figures for the minimal inhibitory concentration (MIC) in test [1] and in test [2] were 25.3 µM (≈ 46.1 µg/mL) and 10.4 µM (≈ 18.9 µg/mL), respectively.

In test [1], `CC(=O)N[C@@H](Cc1ccccc1)C(=O)NCC(=O)N1C[C@@H](NC(=N)N)C[C@H]1C(=O)N[C@@H](CCCCN)C(=O)N[C@@H](CCCCN)C(=O)N[C@@H](CCCNC(=N)N)C(=O)N1C[C@@H](NC(=N)N)C[C@H]1C(=O)N[C@@H](CCC(N)=O)C(=O)N[C@@H](CCCNC(=N)N)C(=O)N[C@@H](CCCNC(=N)N)C(=O)N1C[C@@H](NC(=N)N)C[C@H]1C(=O)NCCC(N)=O` (Ac-FG[Pro(cis-4-guanidino)]KKR[Pro(cis-4-guanidino)]QRR[Pro(cis-4-guanidino)][βAla]-NH2) gave a pIC50 of 5.88 and an MIC of 15 µM (≈ 24.7 µg/mL). Besides, in test [2], the pIC50 was 6.30 and the MIC turned out to be 6 µM (≈ 9.9 µg/mL).

In the case of `CC(=O)N[C@@H](Cc1ccccc1)C(=O)NCC(=O)N1C[C@@H](NC(=N)N)C[C@H]1C(=O)N[C@@H](CCCCN)C(=O)N[C@@H](CCCCN)C(=O)N[C@@H](CCCNC(=N)N)C(=O)N1C[C@@H](NC(=N)N)C[C@H]1C(=O)N[C@@H](CCC(N)=O)C(=O)N1C[C@@H](NC(=N)N)C[C@H]1C(=O)N[C@@H](CCCNC(=N)N)C(=O)N1C[C@@H](NC(=N)N)C[C@H]1C(=O)NCCC(N)=O` (Ac-FG[Pro(cis-4-guanidino)]KKR[Pro(cis-4-guanidino)]Q[Pro(cis-4-guanidino)]R[Pro(cis-4-guanidino)][βAla]-NH2), in test [1], the pIC50 is 4.97 and the MIC came out at 26.4 µM (≈ 43.5 µg/mL). In test [2], the pIC50 is 5.72 and it took 21.5 µM (≈ 35.4 µg/mL) to inhibit growth (MIC).

On to `CC(=O)N[C@@H](Cc1ccccc1)C(=O)NCC(=O)N[C@H]1C[C@@H](C(=O)N[C@@H](CCCCN)C(=O)N[C@@H](CCCCN)C(=O)N[C@@H](CCCNC(=N)N)C(=O)N[C@H]2C[C@@H](C(=O)N[C@@H](CCC(N)=O)C(=O)N[C@@H](CCCNC(=N)N)C(=O)N[C@@H](CCCNC(=N)N)C(=O)N[C@H]3C[C@@H](C(=O)NCCC(N)=O)N(CCCN)C3)N(CCCN)C2)N(CCCN)C1` (Ac-FG[X1]KKR[X1]QRR[X1][βAla]-NH2), for which the pIC50 in test [1] was 5.59; in test [2] it was 5.84. Also, the MIC in test [1] was determined as 23.5 µM (≈ 39.8 µg/mL); in test [2], 14 µM (≈ 23.7 µg/mL).

Turning to `CC(=O)N[C@@H](Cc1ccccc1)C(=O)NCC(=O)N[C@H]1C[C@@H](C(=O)N[C@@H](CCCCN)C(=O)N[C@@H](CCCCN)C(=O)N[C@@H](CCCNC(=N)N)C(=O)N[C@H]2C[C@@H](C(=O)N[C@@H](CCC(N)=O)C(=O)N[C@H]3C[C@@H](C(=O)N[C@@H](CCCNC(=N)N)C(=O)N[C@H]4C[C@@H](C(=O)NCCN)N(CCCN)C4)N(CCCN)C3)N(CCCN)C2)N(CCCN)C1` (Ac-FG[X1]KKR[X1]Q[X1]R[X1]-Ethylenediamine), in test [1], the pIC50 was 5.55 and the MIC was 12 µM (≈ 20.2 µg/mL). In test [2], the pIC50 was 5.97 and 6.6 µM (≈ 11.1 µg/mL) was the least that counted as inhibitory (MIC).

Consider `NC(=O)c1cnccn1` [PYRAZINAMIDE], for which the MIC in test [1] and in test [2] was above 100 µM each time.

In the case of `CO[C@H]1/C=C/O[C@@]2(C)Oc3c(C)c(O)c4c(O)c(c(/C=N/N5CCN(C)CC5)c(O)c4c3C2=O)NC(=O)/C(C)=C\C=C\[C@H](C)[C@H](O)[C@@H](C)[C@@H](O)[C@@H](C)[C@H](OC(C)=O)[C@@H]1C` [RIFAMPIN], the MIC in test [1] and in test [2] was above 12.1 µM throughout.
